According to patent EP1733731A1, “New uses of Glycerol derivatives in particular in cosmetics” (AGRO INDUSTRIE RECHERCHES ET DEVELOPPEMENTS (A.R.D.), priority 2005, dated 2006):

Molecular target: T1, MMP-1 (Homo sapiens, UniProt P03956)
T1 construct: La proMMP-1 recombinante (75 ng/mL) est activée par l'APMA
T1 sequence (P03956 100-469): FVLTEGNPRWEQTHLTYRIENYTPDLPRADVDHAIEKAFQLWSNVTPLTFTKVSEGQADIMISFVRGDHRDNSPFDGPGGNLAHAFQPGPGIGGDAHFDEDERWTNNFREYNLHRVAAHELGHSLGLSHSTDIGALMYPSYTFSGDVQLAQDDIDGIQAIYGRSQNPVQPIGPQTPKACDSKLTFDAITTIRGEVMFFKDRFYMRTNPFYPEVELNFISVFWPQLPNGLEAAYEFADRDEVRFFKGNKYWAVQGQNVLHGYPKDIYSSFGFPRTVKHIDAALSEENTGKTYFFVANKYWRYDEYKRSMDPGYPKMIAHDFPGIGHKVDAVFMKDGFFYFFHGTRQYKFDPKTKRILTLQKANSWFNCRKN
Assay: MMP-1 activity on fluorescent synthetic substrate (FRET)
Format: biochemical
Excerpt: La mesure de l'activité enzymatique des MMPs est basée sur le principe du transfert d'énergie par résonance, RET ou transfert d'énergie de fluorescence par résonance, FRET. Le substrat est constitué d'un oligopeptide comportant un groupement fluorescent (F), donneur d'énergie et un groupement éteignant (Q, pour quenching), accepteur d'énergie. Après hydrolyse, le groupement éteignant est libéré, permettant de mesurer l'augmentation de fluorescence.
De nombreux couples fluorescent/éteignant ont été développés pour la mesure de l'activité enzymatique des MMPs comme le couple 7-méthoxycoumarine-4-acétyl (Mca)/dinitrophenyl-diaminopropionyl (Dnp).
Après activation, la MMP-1 est pré-incubée à +20°C pendant 10 minutes en absence ou en présence d'effecteurs dans un tampon Tris-HCl 50 mM, NaCl 150 mM, CaCl2 5 mM pH 7,5 en plaque 96 puits noire dont les sites de liaisons non-spécifiques ont été bloqués à l'aide d'une solution de SAB à 0,1% (p/v) dans le même tampon. La réaction est initiée par addition de 10 µL de substrat à la concentration finale de 2 µM dans un volume réactionnel final de 200 µL. Les variations de fluorescence (λ excitation : 360 nm, λ émission : 465 nm) au cours du temps sont suivies à l'aide d'un spectrofluorimètre lecteur de plaque HTS 7000+ à +20°C. La courbe représentant la fluorescence (en RFU) en fonction du temps (en minutes) est tracée.
Les intensités de fluorescence obtenues permettent d'estimer là vitesse initiale de l'enzyme en absence d'effecteur (V0) et en présence d'inhibiteur (Vi). […]
La proMMP-1 recombinante (75 ng/mL) est activée par l'APMA (Acide Phényl Mercurique Acétate). […] Le clivage de ce substrat est estimé par mesure de la fluorescence libérée (λexc = 360 nm; λem = 465 nm) à l'aide d'un spectrofluorimètre lecteur de plaques de type Perkin Elmer HTS 7000 Plus. Les intensités de fluorescence obtenues permettent d'estimer la vitesse initiale de l'enzyme en l'absence d'effecteur (Vo) et en présence d'inhibiteur (Vi). […]

inhibition at 25 µg/mL (25 µg/mL, read-out: Inhibition de MMP-1 (%)): 42 ± 0.87% | Action sur l'activité de la MMP-1 (Vi/V0) à isoconcentration (at isoconcentration): 168 | Augmentation d'activité (inhibition of type I collagenase, increase from one fractionation step to the next): 2,72
Compound: CCCCC/C=C\C/C=C\CCCCCCCCOC[C@H](CO[C@@H]1O[C@H](COC(=O)CCCCCCCCCCCCCCC)[C@H](O)[C@H](O)[C@H]1O)OCCCCCCCC/C=C\C/C=C\CCCCC [ED23-11, 1,2-di-O-linoléyl-3-O-[6'-O-palmitoyl-β-D-galactopyranosyl]-sn-glycérol]
